# Measured values from patent publication US20260284082A1, “TARGETING THE PANX1-P2Y2R-TRPV4 PATHWAY TO TREAT LUNG ISCHEMIA-REPERFUSION INJURY” (UNIVERSITY OF VIRGINIA PATENT FOUNDATION, priority 2023, published 2026).
# Like-named read-outs stand apart in the source and are kept apart here.
# Assays:
# [1] = tested on: human PMVECs; experiment: Baseline Ca2+ signaling in human PMVECs exposed to acute HR (Calbryte 520); type: cell-based; conditions: ARC 10 μM; 1 h hypoxia + 10 min reoxygenation
# Description: Exposure of PMVECs to acute HR and Ca^2+ imaging in PMVECs: Primary human and murine pulmonary microvascular endothelial cells (PMVECs; Cell Biologics, Chicago, IL) were cultured on gelatin-coated flasks in endothelial cell medium (Cell Biologics). For acute HR exposure, PMVECs were washed with PBS, and serum-free/glucose-free endothelial cell medium was added. PMVECs were placed in a humidified, sealed hypoxia chamber (Billups-Rothenberg, San Diego, CA), whereupon the chamber was flushed with 95% nitrogen/5% CO2 for 20 minutes and placed in a 37° C. incubator to initiate hypoxia. After 1 hour of hypoxia, the chamber was opened to terminate hypoxia. […]
# Ca^2+ imaging in human and mouse PMVECs was performed using an Andor Dragonfly 505 spinning-disk confocal imaging system with Borealis illumination and an Integrated Laser Engine solid-state laser source (Andor Technology, Belfast, UK), coupled with a Leica Dmi8 inverted microscope (Leica) and 63× objective (NA 1.47)^13 Images were acquired at 30 frames per second using Fusion 2.3 (Oxford Instruments, Belfast, UK) and an electron-multiplying CCD camera (iXon888). Calbryte 520 AM was excited at 488 nm, and emitted fluorescence was captured using a 525/50 bandpass emission filter. […]
# [2] = tested on: mouse model of lung IRI; experiment: Murine lung IR model (left-lung hilar ligation), pre-treatment with P2Y2R inhibitor; type: in vivo, mice; conditions: AR-C 5 mg/kg via jugular vein 1 hr prior to hilar ligation; 1 h ischemia + 2 h reperfusion
# Description: Murine lung IR model. A left-lung hilar-ligation model of IRI in mice involving 1 hour of ligation (ischemia) followed by 2 hours of reperfusion.^9,20 Partial pressure of oxygen, lung compliance, lung edema, neutrophil infiltration, and cytokine levels in bronchoalveolar lavage fluid were assessed. Exposure of small pulmonary arteries and pulmonary microvascular endothelial cells to acute hypoxia-reoxygenation were used as ex vivo and in vitro surrogate models of IR, respectively.
# Murine lung IR model: A well-established left lung IRI model involving temporary in vivo ligation of the left hilum (pulmonary artery, vein, and airway) was used.^6 Briefly, mice were anesthetized with inhaled isoflurane, intubated, ventilated with room air at 150 strokes/min with a tidal volume of […] (Harvard Apparatus Co, South Natick, MA), and heparinized (20 U/kg: Hospira Inc, Lake Forest, IL). […] Animals were again extubated, recovered in their cage, and monitored during the 2-hour reperfusion period. […]
# Partial pressure of arterial oxygen (PaO2): After reperfusion, animals were anesthetized, intubated, and ventilated with 100% oxygen. […] Left lung-specific PaO2 was immediately measured using an i-STAT handheld blood analyzer and CG4+ cartridge (Abbott Point of Care, Princeton, NJ).
# Lung wet-to-dry weight ratio: Lung wet-to-dry weight ratio was measured as an indicator of pulmonary edema. […]
# [3] = dog, in vivo; cited from earlier work
# [4] = rat, in vivo; cited from earlier work
structure (smiles),measurement,setting,value
"Cc1ccc2c(c1)C=Cc1cc(C)ccc1C2c1cn(Cc2ccc(C(=O)Nc3nn[nH]n3)o2)c(=O)[nH]c1=S [ARC, AR-C 118925XX]",HR-induced increase in baseline endothelial Ca signaling,[1],blocked
same,partial pressure of oxygen (PaO2) after IR (lung function),[2],improved
same,pulmonary edema (lung wet-to-dry weight ratio) after IR,[2],not in mice pre-treated with P2Y2R inhibitor AR-C
"O=C(NC1(c2ccccc2)CC1)c1c(CN2CCC(N3CCCCC3)CC2)c(-c2cccc(C(F)(F)F)c2)nc2cc(Br)ccc12 [GSK219, GSK2193874]",plasma half-life (t1/2),[3],31 h
same,plasma half-life (t1/2),[4],10 h
